In the test the target is T1, SRC N1 (Homo sapiens, UniProt P12931).
T1 construct: purchased Thermo Fisher Scientific (Life Technologies) SelectScreen
Kind of test: SelectScreen Z'LYTE. The format is biochemical. The method, boiled down: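 SelectScreen broad panel; activity (Z'LYTE, Adapta) plus binding formats. ATP: Km app for CSF1R Z'LYTE; 10 for CAMK1 Adapta. Readout = % per kinase.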

One may read the inhibition as the share of the control response that was lost under treatment. A lower inhibition goes with a weak effect.

T1 sequence (P12931 1-542 isoform P12931-2): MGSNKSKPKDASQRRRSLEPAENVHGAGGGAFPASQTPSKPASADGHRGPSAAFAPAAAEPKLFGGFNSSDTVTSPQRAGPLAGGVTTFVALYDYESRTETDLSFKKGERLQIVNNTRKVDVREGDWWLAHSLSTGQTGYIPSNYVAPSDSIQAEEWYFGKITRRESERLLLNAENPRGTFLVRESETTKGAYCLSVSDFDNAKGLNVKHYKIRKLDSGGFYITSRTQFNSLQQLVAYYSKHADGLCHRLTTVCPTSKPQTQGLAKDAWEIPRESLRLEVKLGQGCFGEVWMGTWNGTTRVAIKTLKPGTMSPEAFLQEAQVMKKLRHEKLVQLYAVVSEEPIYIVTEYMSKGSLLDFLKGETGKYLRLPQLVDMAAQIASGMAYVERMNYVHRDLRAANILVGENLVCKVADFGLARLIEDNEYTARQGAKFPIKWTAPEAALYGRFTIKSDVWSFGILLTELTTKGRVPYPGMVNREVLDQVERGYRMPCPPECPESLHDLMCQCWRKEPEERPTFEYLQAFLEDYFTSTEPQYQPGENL

In the case of `CN(C(=O)CN1CCOCC1)c1ccc2sc3c(-c4cccc5c(=O)cc(N6CC7CCC(C6)O7)oc45)cccc3c2c1` [NU5455], the inhibition at 1 µM is 3.9%.
